From US8497285B2, “Therapy of autoimmune colitis using a TIP60 inhibitor” (The Trustees Of The University Of Pennsylvania, priority 2010, dated 2013)
Each block holds one compound with its values, some of them ahead of it.

How the values were obtained:
[1] = tested on: Treg suppression of T cell proliferation; test: Treg suppression assay (CFSE T cell proliferation, 3 days, varying Treg:T cell ratios); type: cell-based; details: for suppression of Treg in vitro: 500x dilution of 10 mM, 20 micromolar, FIG. 10; for T cell proliferation (percentage of proliferated cells): Treg:Teff=1:1
Excerpt: FIG. 8. are flow cytometry dataplots showing the enhancement of TIP60 inhibitor B7 suppression of Treg in vitro. Individual peaks reflect number of cells divisions under the standard test conditions (3 days), where the cell populations are dyed with CFSE (carboxyfluorescen diacetate, succimidyl ester). FIG. 8A are the data for DMSO without B7; FIG. 8B are the data for B7-1000×; FIG. 8C are the data for B7-4000×; and FIG. 8D are the data for B7-8000. In each case, the 1000×/4000×/8000× refers to the dilution factor of the B7, from an original 10 mM solution of B7; e.g, 1000× represents a solution diluted by a factor of 1000, so as to result in a 10 micromolar solution. The numbers in the upper left corner of the plot (e.g., 88, 81, 74, 65, and 37 of FIG. 8A) refer to the measured percentage of proliferated cells.
FIG. 10. are flow cytometry dataplots showing the enhancement of TIP60 inhibitors B7 suppression of Treg in vitro. FIG. 10A are the data for DMSO without any B7-type inhibitor; FIG. 10B are the data for B7-500×; FIG. 10C are the data for B7A-500×; FIG. 10D are the data for B7B-500; and FIG. 10D are the data for B7C-500×. In each case, the 500× refers to the dilution factor of the B7/B7A/B7B/B7C, from an original 10 mM solution of the compound; e.g, 500× represents a solution diluted by a factor of 500, so as to result in a 20 micromolar solution.
Several exemplary compounds of the present invention were screened at 10 μg/ml in vitro, at varying Treg:T cell ratios, using standard cell proliferation techniques (3 days, using CSFE dyes). Such techniques are well understood by those skilled in the art. For example, see Akimova T, Ge G, Golovina T, Mikheeva T, Wang L, Riley J L, Hancock W W., “Histone/protein deacetylase inhibitors increase suppressive functions of human FOXP3+ Tregs,” Clin Immunol. 2010 September; 136(3):348-63; Tao R, Hancock W W., Resistance of FOXP3+ regulatory T cells to Nur77-induced apoptosis promotes allograft survival,” PLoS One. 2008 May 28; 3(5):e2321; Tao R, Wang L, Murphy K M, Fraser C C, Hancock W W., “Regulatory T cell expression of herpesvirus entry mediator suppresses the function of B and T lymphocyte attenuator-positive effector T cells.,” J. Immunol. 2008 May 15; 180(10):6649-55; and Tao R, de Zoeten E F, Ozkaynak E, Chen C, Wang L, Porrett P M, Li B, Turka L A, Olson E N, Greene M I, Wells A D, Hancock W W., “Deacetylase inhibition promotes the generation and function of regulatory T cells,” Nat. Med. 2007 November; 13(11):1299-307 for the protocols used herein. Each of these references is incorporated by reference herein, at least for this purpose.
T cell proliferation was unimpaired in the absence of Treg cells (see left panels in FIG. 8A-D), but was increasingly impaired at increasing Treg concentration (for example, in FIG. 8A, increasing Treg:Tcell ratio from 0:1 to 1:1 reduced proliferation from 88% to 37% under otherwise identical conditions). […] Efficacy was also seen at 1 μg/ml for some compounds.

FOXP3 = FOXP3 bound on chromatin in SZ-4 T cells (Western blot); type: cell-based; details: FIG. 9
TIP60 = molecular target: T1, TIP60 (Homo sapiens, UniProt Q92993); test: TIP60 activity by acetylation of TIP60 or its substrate FOXP3 in transfected 293T cells (Ac-K immunoprecipitation, Western blot); type: cell-based; details: 4 hours
T1 construct: expressed in transfected cells; host or cells: 293T cells
Method: FIG. 11 illustrate the effect of B7G on TIP60. TIP60 activity was assessed by examining acetylation of TIP60 or its substrate FOXP3. Both TIP60 and FOXP3 were overexpressed in 293T cells. Acetylated proteins were first immunoprecipitated with the acetyl-lysine specific antibody Ac-K and then blotted with HRP conjugated antibodies to expression tags (HA for FOXP3 or FLAG for TIP60).
TIP60 is known to have acetyl transferase activity to acetylate itself (auto-acetylation) or substrates including FOXP3. To examine activity of B7G on TIP60, 293T cells were transfected with Flag-tagged TIP60 and HA-tagged FOXP3. 24 hours after transfection, cells were treated with various concentrations of B7G for 4 hours before cell lysates were collected. Acetylated proteins were precipitated by anti-acetyl lysine antibody Ac-K. FOXP3 and TIP60 in the lysate or precipitated by Ac-K antibody were identified by anti-HA-HRP and anti-FLAG-HRP respectively.

[2] = tested on: dextran sodium sulfate (DSS) colitis; test: DSS model of colitis, reversal of established colitis; type: in vivo, mice
Method: FIG. 12A-C are the results of experiments described in Example 5. […] FIG. 12C provide graphical data for weight loss, bleeding score, and stool consistency (i.e., higher score reflects higher levels of diarrhea), wherein the mice were first subjected to DSS irritation, then subset populations were remedially treated after 8 days with the compound having Structure B7.
In a first test, the effects of exposure to dextran sodium sulfate (DSS) were evaluated, which results in a partially CD4-dependent inflammatory model of colitis, in wildtype (WT) versus TIP60dn C57BL/6 mice (8 mice/group).
Data were also generated using the compound of Structure B7 in the DSS model, in an experiment designed to test the ability of TIP60 inhibitor therapy to reverse established colitis by waiting until mice had ˜15% weight loss. In marked contrast to use of carrier DMSO alone, TIP60 inhibitor therapy (2 mg/kg/d, i.p.) reversed weight loss (p<0.01), blood in the stool (p<0.01) and diarrhea (p<0.005) (see FIG. 12C) and maintained colon length (p<0.01).

[3] = 2 mg/kg/d i.p., vs carrier DMSO, p<0.01

T1 sequence (Q92993 whole entry, species assumed): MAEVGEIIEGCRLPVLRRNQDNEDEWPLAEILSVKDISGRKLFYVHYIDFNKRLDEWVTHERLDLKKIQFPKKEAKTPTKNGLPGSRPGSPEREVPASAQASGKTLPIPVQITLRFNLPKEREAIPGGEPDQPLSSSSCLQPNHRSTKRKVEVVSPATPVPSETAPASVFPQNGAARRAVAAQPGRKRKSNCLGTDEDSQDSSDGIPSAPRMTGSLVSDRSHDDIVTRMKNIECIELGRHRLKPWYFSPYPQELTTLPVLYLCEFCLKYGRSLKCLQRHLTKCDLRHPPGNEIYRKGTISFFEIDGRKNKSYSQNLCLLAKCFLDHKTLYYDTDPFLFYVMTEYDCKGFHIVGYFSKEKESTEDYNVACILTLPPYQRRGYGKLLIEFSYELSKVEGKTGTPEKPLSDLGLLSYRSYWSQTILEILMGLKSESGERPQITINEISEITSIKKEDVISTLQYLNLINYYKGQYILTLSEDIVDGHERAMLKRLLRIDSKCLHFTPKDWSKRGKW

SMILES: O=C(Nc1ccc(Cl)cc1)C1CC(=O)N(CCc2ccc(Cl)cc2)C1 (stereo not drawn) [Compound B7A]
- suppression of Treg in vitro [1]: enhancement

SMILES: COc1ccc(NC(=O)C2CC(=O)N(CCc3ccc(Cl)cc3)C2)cc1 (stereo not drawn) [Compound B7B]
- suppression of Treg in vitro [1]: enhancement

SMILES: Cc1ccc2cc(NC(=O)C3CC(=O)N(CCc4ccc(Cl)cc4)C3)ccc2n1 (stereo not drawn) [Compound B7C]
- suppression of Treg in vitro [1]: enhancement
- FOXP3 bound on chromatin (FOXP3): intervening with FOXP3 bound on chromatin

- Acetylated FOXP3 (TIP60; 32 μg/ml): reduced significantly
- Acetylated TIP60 (TIP60; 32 μg/ml): reduced significantly
- TIP60 auto-acetylation (TIP60; lower concentration): slightly increase
- TIP60 expression level in total cell lysate (TIP60; various concentrations, FLAG-HRP): not significantly affected
- FOXP3 expression level in total cell lysate (TIP60; various concentrations, HA-HRP): not significantly affected
SMILES: COc1ccc(CCN2CC(C(=O)Nc3ccc(F)c(Cl)c3)CC2=O)cc1OC (stereo not drawn) [Compound B7G]

SMILES: Cc1ccc(NC(=O)C2CC(=O)N(CCc3ccc(Cl)cc3)C2)cc1 (stereo not drawn) [Compound B7]
- suppression of Treg in vitro [1]: enhancement
- Treg activity (decreasing T cell proliferation) ([1]; B7 2.5 to 10 μM, dose dependent): enhanced the Treg activity
- T cell proliferation in the absence of Treg cells ([1]; Treg:T cell 0:1, FIG. 8A-D left panels): unimpaired
- T cell proliferation (percentage of proliferated cells) ([1]; highest B7 dose 10 μM (FIG. 8B, 1000x dilution)): 25%
- T cell proliferation (percentage of proliferated cells) ([1]; intermediate B7 dose (FIG. 8C, 4000x dilution of 10 mM)): 30%
- T cell proliferation (percentage of proliferated cells) ([1]; lowest B7 dose (FIG. 8D, 8000x dilution of 10 mM; text: 2.5 μM)): 37%
- weight loss ([2]; 2 mg/kg/d i.p., started at ~15% weight loss, vs carrier DMSO, p<0.01): reversed
- diarrhea ([2]; 2 mg/kg/d i.p., vs carrier DMSO, p<0.005): reversed
- blood in the stool [2, 3]: reversed
- colon length [2, 3]: maintained
- colon length relative to unstressed control animal ([2]; single animal, 3% DSS then B7): about 94%
- spleen size relative to control ([2]; single animal, 3% DSS then B7): comparable in size to that of the control
